Experiments:
[1] = Stability in PBS with or without glutathione, sodium ascorbate or HEK293T cell lysate (HPLC); assay type: physicochemical
Protocol: The stability of both the enamine N-oxide and hydroxylamine species under a variety of biologically relevant conditions were verified at various time points (FIG. 5A-FIG. 5B). […] However, approximately 40% of the hydroxylamine had decomposed by the 24 hour time point. The primary degradation products were consistent with hydrolysis of the regioisomeric nitrones that were likely generated by autoxidation. Consequently, this degradation pathway could be abrogated by the addition of cellular reductants such as ascorbic acid (5 mM) or glutathione (5 mM) (Bobko et al., Free Radical Biol. Med. 42(3):404-412 (2007)).
As with the hydroxylamine, the stability of enamine N-oxide 17 was evaluated by HPLC under biologically relevant conditions.
All reactions were monitored by HPLC at 0, 1, 2, 4, 8, and 24 hour time points.
HPLC analysis: Reactions with enamine N-oxide 17 were analyzed by HPLC (Pursuit 200 Å C18, 4.6×150 mm, 10 μm particles, 1 mL/min flow rate, eluent: isocratic 0% MeCN/H2O+0.1% TFA (1 min), gradient 0→100% MeCN/H2O+0.1% TFA (14 minutes), isocratic 100% MeCN/H2O+0.1% TFA (1 minute)) and quantified using its absorbance at 280 nm. Reactions with hydroxylamine 13 were analyzed by HPLC (Pursuit 200 Å C18, 4.6×150 mm, 10 μm particles, 1 mL/min flow rate, eluent: isocratic 0% MeCN/H2O+0.1% TFA (1 minute), gradient 0-20% MeCN/H2O+0.1% TFA (1 minute), gradient 20-50% MeCN/H2O+0.1% TFA (16 minutes), gradient 50→100% MeCN/H2O+0.1% TFA (2 minutes), isocratic 100% MeCN/H2O+0.1% TFA (1 minute)) and quantified using its absorbance at 254 nm.
Stability in PBS: Enamine N-oxide 17 (4 μL, 15 mM in 25% v/v MeOH/PBS, pH 7.4) was added to PBS (116 μL, pH 7.4; 500 μM final concentration). Separately, hydroxylamine 13 (3 μL, 20 mM in deionized H2O) was added to PBS (117 μL, pH 7.4; 500 μM final concentration). Each solution was monitored by HPLC at each time point.
Stability in the presence of glutathione, sodium ascorbate, and cell lysate: The reactions were conducted as described above in the Stability in PBS section except the PBS solution was first supplemented with glutathione (5 mM final concentration), sodium ascorbate (5 mM final concentration), or HEK293T cell lysate (1 mg/mL final concentration) and pH adjusted to 7.4 before adding enamine N-oxide 17 (500 μM final concentration) or hydroxylamine 13 (500 μM final concentration).

lysozyme-COT 15 = biological target: T1, lysozyme-COT 15 (Gallus gallus, UniProt P00698); assay: In vitro protein labeling of lysozyme-COT 15 with hydroxylamine 13 (in-gel fluorescence, intact MS); assay type: biochemical
T1 construct: purchased
T1 sequence (P00698 19-147): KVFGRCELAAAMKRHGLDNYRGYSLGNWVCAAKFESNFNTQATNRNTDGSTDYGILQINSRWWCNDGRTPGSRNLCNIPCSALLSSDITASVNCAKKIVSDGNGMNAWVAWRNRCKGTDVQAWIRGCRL
Protocol: To test the bioorthogonality of the hydroamination reaction, in vitro protein labeling experiments were performed. Fluorophore-conjugated hydroxylamine 13 was first assembled from 6-carboxytetramethylrhodamine and hydroxylamine 12, which was in turn synthesized by nucleophilic displacement of iodide 11 with N-methylhydroxylamine hydrochloride (FIG. 4A). […] With both reaction components in hand, cyclooctyne-functionalized lysozyme 15 was treated with hydroxylamine 13 (0-200 μM) in PBS for 2 hours and analyzed by in-gel fluorescence (FIG. 4C). Labeling occurred in a concentration-dependent manner, and labeling was saturated at 100 μM hydroxylamine. […]
Lysozyme (CAS 12650-88-3, 50 mg/mL in deionized H2O) was diluted into phosphate-buffered saline (PBS, pH 7.4) to a final concentration of 10 mg/mL. […] The concentration of lysozyme was determined by A280 measurement in denaturing buffer (pH 7.0, 6 M guanidinium, 30 mM MOPS) on a UV-vis spectrophotometer. […]
A solution of lysozyme-COT 15 (5.0 μL, 0.15 mg/mL) was aliquoted into 6 samples. […] In-gel fluorescence was imaged with a Typhoon™ FLA 9500 (GE) at 532 nm with a photomultiplier tube (PMT) setting of 500 V. The experiment was carried out in triplicate (FIG. 8).
A solution of lysozyme-COT 15 (5.0 μL, 0.15 mg/mL) was aliquoted each into 6 samples. […] Samples were snap frozen under liquid nitrogen until all samples were ready to be loaded on the gel. […]

CN(O)CCOCCNC(=O)c1ccc2c(c1)C1(OC2=O)c2ccc(N(C)C)cc2Oc2cc(N(C)C)ccc21 [compound 13, 3′,6′-bis(dimethylamino)-N-(2-(2-(hydroxy(methyl)amino)ethoxy)ethyl)-3-oxo-3H-spiro[isobenzofuran-1,9′-xanthene]-6-carboxamide]
degradation in cell lysate ([1]; HEK293T cell lysate (1 mg/mL), 24 hours, no exogenous reductants): no degradation above background | degradation in the presence of cellular reductants ([1]; PBS with ascorbic acid (5 mM) or glutathione (5 mM), 24 hours): Negligible degradation | hydroxylamine decomposed ([1]; PBS, room temperature, 24 hour time point): approximately 40% | compound intact ([1]; PBS, room temperature, up to 8 hours, HPLC): > 86% | time to in-gel fluorescence signal saturation (lysozyme-COT 15; 200 μM 13, quenched with N,N-diethylhydroxylamine (20 mM)): ≤ 1 h | hydroxylamine concentration at which labeling was saturated (lysozyme-COT 15; lysozyme-COT 15, 0-200 μM 13, PBS, 2 hours, in-gel fluorescence): 100 µM

Source: US20240165259A1, “BIOORTHOGONAL REACTION SUITABLE FOR CLICK/UNCLICK APPLICATIONS” (DANA-FARBER CANCER INSTITUTE, INC., priority 2021, published 2024)
